Assay [1] concerns Beet Armyworm (Spodoptera exigua) ("BAW"). Put plainly: Bioassay on beet armyworm (BAW), 128-well diet tray assay. It counts as in vivo. As to conditions: for mortality at 50 µg/cm2: 168 h, 50 μg/cm^2 on artificial diet, second instar BAW larvae, 25° C., five to seven days, average of eight wells, read-out: BAW % Control (or Mortality) rating; for pest or weed control at 50 µg/cm2: activity rating class, read-out: BAW (Biological Results, Insect species). On the procedure: (§1) Certain molecules disclosed in this document were tested against BAW and CEW using procedures described in the following examples. In the reporting of the results, the “BAW & CL Rating Table” was used (See Table Section). BIOASSAYS ON BAW
Bioassays on BAW were conducted using a 128-well diet tray assay. one to five second instar BAW larvae were placed in each well (3 mL) of the diet tray that had been previously filled with 1 mL of artificial diet to which 50 μg/cm^2 of the test compound (dissolved in 50 μL of 90:10 acetone-water mixture) had been applied (to each of eight wells) and then allowed to dry. Trays were covered with a clear self-adhesive cover and held at 25° C., 14:10 light-dark for five to seven days. Percent mortality was recorded for the larvae in each well; activity in the eight wells was then averaged. The results are indicated in the table entitled “Table ABC: Biological Results” (See Table Section).

In assay [2] the test system is Cabbage Looper (Trichoplusia ni) ("CL"). Put plainly: Bioassay on cabbage looper (CL), 128-well diet tray assay. As to conditions: for mortality at 50 µg/cm2: 168 h, 50 μg/cm^2 on artificial diet, second instar CL larvae, 25° C., five to seven days, average of eight wells, read-out: CL % Control (or Mortality) rating; for pest or weed control at 50 µg/cm2: activity rating class, read-out: CL (Biological Results, Insect species). It counts as in vivo. On the procedure:
as §1
Bioassays on CL were conducted using a 128-well diet tray assay. one to five second instar CL larvae were placed in each well (3 mL) of the diet tray that had been previously filled with 1 mL of artificial diet to which 50 μg/cm^2 of the test compound (dissolved in 50 μL of 90:10 acetone-water mixture) had been applied (to each of eight wells) and then allowed to dry. Trays were covered with a clear self-adhesive cover and held at 25° C., 14:10 light-dark for five to seven days. Percent mortality was recorded for the larvae in each well; activity in the eight wells was then averaged. The results are indicated in the table entitled “Table ABC: Biological Results” (See Table Section).

Like-named read-outs stand apart in the source and are kept apart here.

The mortality is the percentage killed.

With `CC(Cc1ccc(-c2ncn(-c3ccc(OC(F)(F)F)cc3)n2)cc1)NC(=O)NC(=S)Nc1ccccc1C(C)C` (stereo not shown) [F4, N-[2-(propan-2-yl)phenyl]-N′-[1-(4-{1-[4-(trifluoromethoxy)phenyl]-1H-1,2,4-triazol-3-yl}phenyl)propan-2-yl]dicarbonimidothioic diamide], the mortality at 50 µg/cm2 in assay [1] and in assay [2] was 50 to 100% in each case.
For the compound `CC(C)c1ccccc1NC(=S)NC(=O)NCc1ccc(-c2ncn(-c3ccc(OC(F)(F)C(F)(F)F)cc3)n2)cc1` [F15, N-(4-{1-[4-(pentafluoroethoxy)phenyl]-1H-1,2,4-triazol-3-yl}benzyl)-N′-[2-(propan-2-yl)phenyl]dicarbonimidothioic diamide], the mortality at 50 µg/cm2 in assay [1] and in assay [2] was 50 to 100% throughout.
As for `Cc1ccc(C(C)C)c(NC(=S)NC(=O)NCc2ccc(-c3ncn(-c4ccc(OC(F)(F)C(F)(F)F)cc4)n3)cc2)c1` [F16], the mortality at 50 µg/cm2 in assay [1] and in assay [2] was 50 to 100% each time.
Consider `CC(C)c1ccccc1N1C(=O)CS/C1=N\C(=O)NCc1ccc(-c2ncn(-c3ccc(OC(F)(F)F)cc3)n2)cc1` [F17, (Z)-1-(3-(2-isopropylphenyl)-4-oxothiazolidin-2-ylidene)-3-(4-(1-(4-(trifluoromethoxy)phenyl)-1H-1,2,4-triazol-3-yl)benzyl)urea], for which the mortality at 50 µg/cm2 in assay [1] and in assay [2] was 50 to 100% throughout.
Regarding `CC(C)c1ccccc1N1C(=O)CS/C1=N\C(=O)NCc1ccc(-c2ncn(-c3ccc(OC(F)(F)C(F)(F)F)cc3)n2)cc1` [F18, (Z)-1-(3-(2-isopropylphenyl)-4-oxothiazolidin-2-ylidene)-3-(4-(1-(4-(perfluoroethoxy)phenyl)-1H-1,2,4-triazol-3-yl)benzyl)urea], the mortality at 50 µg/cm2 in assay [1] and in assay [2] was 50 to 100% throughout.
Regarding `Cc1ccc(C(C)C)c(N2C(=O)CS/C2=N\C(=O)NCc2ccc(-c3ncn(-c4ccc(OC(F)(F)C(F)(F)F)cc4)n3)cc2)c1` [F19, (Z)-1-(3-(2-isopropyl-5-methylphenyl)-4-oxothiazolidin-2-ylidene)-3-(4-(1-(4-(perfluoroethoxy)phenyl)-1H-1,2,4-triazol-3-yl)benzyl)urea], the mortality at 50 µg/cm2 in assay [1] and in assay [2] was 50 to 100% each time.
Take `COc1ccc(NC(=S)NC(=O)NC2CC2c2ccc(-c3ncn(-c4ccc(OC(F)(F)F)cc4)n3)cc2)c(C)c1` (stereo not shown) [F26]: the mortality at 50 µg/cm2 in assay [1] and in assay [2] was 50 to 100% throughout.
Regarding `Cc1ccc(C(C)C)c(NC(=S)NC(=O)NCc2ccc(-c3ncn(-c4ccc(OC(F)(F)F)cc4)n3)cc2)c1` [F35], in assay [1], the mortality at 50 µg/cm2 lay within 50 to 100%.
`Cc1ccc(C(C)C)c(NC(=S)NC(=O)NCCc2ccc(-c3ncn(-c4ccc(OC(F)(F)F)cc4)n3)cc2C)c1` [FB1, 1-[(2-isopropyl-5-methyl-phenyl)carbamothioyl]-3-[2-[2-methyl-4-[1-[4-(trifluoromethoxy)phenyl]-1H-1,2,4-triazol-3-yl]phenyl]ethyl]urea]: the pest or weed control at 50 µg/cm2 in assay [1] (Table ABC (FB)) and in assay [2] (Table ABC (FB)) was 50 to 100% each time.
In the case of `COc1ccc(C(C)C)c(NC(=S)NC(=O)NCCc2ccc(-c3ncn(-c4ccc(OC(F)(F)F)cc4)n3)cc2C)c1` [FB2], the pest or weed control at 50 µg/cm2 in assay [1] (Table ABC (FB)) and in assay [2] (Table ABC (FB)) was 50 to 100% each time.
Take `Cc1ccc(C(C)C)c(N2C(=O)CS/C2=N\C(=O)NCCc2ccc(-c3ncn(-c4ccc(OC(F)(F)F)cc4)n3)cc2C)c1` [FB3, (Z)-1-(3-(2-isopropyl-5-methylphenyl)-4-oxothiazolidin-2-ylidene)-3-(2-methyl-4-(1-(4-(trifluoromethoxy)phenyl)-1H-1,2,4-triazol-3-yl)phenethyl)urea]: the pest or weed control at 50 µg/cm2 in assay [1] (Table ABC (FB)) and in assay [2] (Table ABC (FB)) was 50 to 100% each time.
`COc1ccc(C(C)C)c(N2C(=O)CS/C2=N\C(=O)NCCc2ccc(-c3ncn(-c4ccc(OC(F)(F)F)cc4)n3)cc2C)c1` [FB4, (Z)-1-(3-(2-isopropyl-5-methoxyphenyl)-4-oxothiazolidin-2-ylidene)-3-(2-methyl-4-(1-(4-(trifluoromethoxy)phenyl)-1H-1,2,4-triazol-3-yl)phenethyl)urea]: the pest or weed control at 50 µg/cm2 in assay [1] (Table ABC (FB)) and in assay [2] (Table ABC (FB)) was 50 to 100% each time.
Regarding `CCc1ccccc1NC(=S)NC(=O)NCCc1ccc(-c2ncn(-c3ccc(OC(F)(F)F)cc3)n2)cc1C` [FB5, 1-[(2-ethylphenyl)carbamothioyl]-3-[2-[2-methyl-4-[1-[4-(trifluoromethoxy)phenyl]-1H-1,2,4-triazol-3-yl]phenyl]ethyl]urea], the pest or weed control at 50 µg/cm2 in assay [1] (Table ABC (FB)) and in assay [2] (Table ABC (FB)) was 50 to 100% throughout.
For the compound `CCc1ccccc1N1C(=O)CS/C1=N\C(=O)NCCc1ccc(-c2ncn(-c3ccc(OC(F)(F)F)cc3)n2)cc1C` [FB6, (Z)-1-(3-(2-ethylphenyl)-4-oxothiazolidin-2-ylidene)-3-(2-methyl-4-(1-(4-(trifluoromethoxy)phenyl)-1H-1,2,4-triazol-3-yl)phenethyl)urea], the pest or weed control at 50 µg/cm2 in assay [1] (Table ABC (FB)) and in assay [2] (Table ABC (FB)) was 50 to 100% throughout.
`Cc1ccc(NC(=S)NC(=O)NCCCCc2ccc(-c3ncn(-c4ccc(OC(F)(F)F)cc4)n3)cc2)c(C)c1` [FB16, 1-[(2,4-dimethylphenyl)carbamothioyl]-3-[4-[4-[1-[4-(trifluoromethoxy)phenyl]-1H-1,2,4-triazol-3-yl]phenyl]butyl]urea]: the pest or weed control at 50 µg/cm2 in assay [2] (Table ABC (FB)) was 50 to 100%.
On to `Cc1ccc(-n2c(C)cs/c2=N\C(=O)NCc2ccc(-c3ncn(-c4ccc(OC(F)(F)F)cc4)n3)cc2)c(C(C)C)c1` [P20, (Z)-1-(3-(2-isopropyl-4-methylphenyl)-4-methylthiazol-2(3H)-ylidene)-3-(4-(1-(4-(trifluoromethoxy)phenyl)-1H-1,2,4-triazol-3-yl)benzyl)urea], for which the mortality at 50 µg/cm2 in assay [2] lay in the range of 50 to 100%.
Same read-out and setting: with `Cc1ccc(C(C)C)c(N2C(=O)CS/C2=N\C(=O)NCCc2cccc(-c3ncn(-c4ccc(OC(F)(F)F)cc4)n3)c2)c1` [P81] the figure was 50 to 100%.
As for `COc1ccc(NC(=S)NC(=O)NCCc2cccc(-c3ncn(-c4ccc(OC(F)(F)F)cc4)n3)c2)c(C)c1` [PC87, 1-[(4-methoxy-2-methyl-phenyl)carbamothioyl]-3-[2-[3-[1-[4-(trifluoromethoxy)phenyl]-1H-1,2,4-triazol-3-yl]phenyl]ethyl]urea], the pest or weed control at 50 µg/cm2 in assay [2] (Table ABC (PC)) lay within 50 to 100%.
On to `CCCc1ccc(C)cc1NC(=S)NC(=O)NCCCc1ccc(-c2ncn(-c3ccc(OC(F)(F)F)cc3)n2)cc1` [PC99, 1-[(5-methyl-2-propyl-phenyl)carbamothioyl]-3-[3-[4-[1-[4-(trifluoromethoxy)phenyl]-1H-1,2,4-triazol-3-yl]phenyl]propyl]urea], for which the pest or weed control at 50 µg/cm2 in assay [1] (Table ABC (PC)) was 50 to 100%.
For the compound `Cc1ccc(NC(=S)NC(=O)NCCCc2ccc(-c3ncn(-c4ccc(OC(F)(F)F)cc4)n3)cc2)c(C(C)C)c1` [PC102, 1-[(2-isopropyl-4-methyl-phenyl)carbamothioyl]-3-[3-[4-[1-[4-(trifluoromethoxy)phenyl]-1H-1,2,4-triazol-3-yl]phenyl]propyl]urea], in assay [1] (Table ABC (PC)), the pest or weed control at 50 µg/cm2 lay in the range of 50 to 100%.
Same read-out and setting: with `CC(C)c1cc(F)ccc1NC(=S)NC(=O)NCCCc1ccc(-c2ncn(-c3ccc(OC(F)(F)F)cc3)n2)cc1` [PC103, 1-[(4-fluoro-2-isopropyl-phenyl)carbamothioyl]-3-[3-[4-[1-[4-(trifluoromethoxy)phenyl]-1H-1,2,4-triazol-3-yl]phenyl]propyl]urea] the figure was 0 to 50%; with `Cc1ccc(NC(=S)NC(=O)NCCCCc2cccc(-c3ncn(-c4ccc(OC(F)(F)F)cc4)n3)c2)c(C(C)C)c1` [PC180, 1-[(2-isopropyl-4-methyl-phenyl)carbamothioyl]-3-[4-[3-[1-[4-(trifluoromethoxy)phenyl]-1H-1,2,4-triazol-3-yl]phenyl]butyl]urea], 0 to 50%; with `CC(C)c1cc(F)ccc1NC(=S)NC(=O)NCCCCc1cccc(-c2ncn(-c3ccc(OC(F)(F)F)cc3)n2)c1` [PC181, 1-[(4-fluoro-2-isopropyl-phenyl)carbamothioyl]-3-[4-[3-[1-[4-(trifluoromethoxy)phenyl]-1H-1,2,4-triazol-3-yl]phenyl]butyl]urea], 0 to 50%.
As to `COc1ccc(C(C)C)c(NC(=S)NC(=O)NCCCCc2cccc(-c3ncn(-c4ccc(OC(F)(F)F)cc4)n3)c2)c1` [PC182, 1-[(2-isopropyl-5-methoxy-phenyl)carbamothioyl]-3-[4-[3-[1-[4-(trifluoromethoxy)phenyl]-1H-1,2,4-triazol-3-yl]phenyl]butyl]urea], the pest or weed control at 50 µg/cm2 in assay [2] (Table ABC (PC)) is 50 to 100%.

(Values after patent publication US9783532B2, “Molecules having certain pesticidal utilities, and intermediates, compositions, and processes related thereto” (Dow AgroSciences LLC, priority 2013, dated 2017).)
